Laboratory results as given in patent publication US20160178637A1, “DETECTION OF ALPHA, BETA-DICARBONYL COMPOUNDS WITH FLUOROGENIC PROBES” (THE UNIVERSITY OF WARWICK, priority 2012, published 2016).

Columns and labels:
[1] = system: human leukaemia 60 cells (HL60); assay: Fluorescence imaging of MG in isolated human leukaemia cells; assay type: cell-based; details: HL60 cells 1×10^5 per ml, DAF-2 10 μM 40 min 37° C., washed, 30-120 min; excitation laser 457 nm, emission filter 470-500 nm
[2] = Incubation of DAF-2 with the NO donor DETA-nonoate, fluorescence; assay type: physicochemical; details: DAF-2 50 μM + DETA-nonoate 10 μM, 10 mM sodium phosphate buffer pH 7.4, 37° C., one hour
Description: 4,5-Diaminofluorescein (DAF-2) was a fluorogenic probe developed for the detection of nitric oxide. 4,5-Diaminorhodamine (DAR), 8-(3,4-diaminophenyl)-2,6-bis(2-carboxyethyl)-4,4-difluoro-1,3,5,7-tetramethyl-4-bora-3a,4a-diaza-s-indacene (DAM BO-P″) and o-diaminocyanine are analogous o-diamino derivatizing agents based on different intense fluorophores. DAF-2 reacts with nitric oxide to form the fluorophore triazolofluorescein [6]. For example, incubation of DAF-2 (50 μM) with the NO donor (Z)-1-[2-(2-aminoethyl)-N-(2-ammonioethyl)amino]diazen-1-ium-1,2-diolate (DETA-nonoate), 10 μM, in 10 mM sodium phosphate buffer, pH 7.4 at 37° C., for one hour gave characteristic fluorescence of triazolofluorescein—excitation and emission maximum wavelengths of 491 and 515 nm, respectively. A further metabolite that reacts with DAF-2 is ascorbic acid which forms adducts DAF-2-DHA-5008 and DAF-2-DHA-518 which are fluorescent with excitation and emission wavelength maxima of 490 and 514 nm, respectively.

emission maximum wavelength [2] [nm]	excitation maximum wavelength [2] [nm]	Structure (SMILES)	fluorescence image of endogenous MG in cells [1]
		Nc1cc2c(cc1N)C1(OC2=O)c2ccc(O)cc2Oc2cc(O)ccc21 [DAF-2, 4,5-diaminofluorescein]	fluorescence indicate of the DAF-2 MG adduct
515	491	O=C1OC2(c3ccc(O)cc3Oc3cc(O)ccc32)c2ccc3[nH]nnc3c21 [triazolofluorescein]	
